In the supplement of paper PMC10307832:

What was measured:
Test in all cases: relative viability (nuclei count vs DMSO), 5 days (fraction); higher = more cells survive
[1] = compound: C1/C(=C\C2=CC=CS2)/C(=O)/C(=C/C3=CC=CS3)/C1
In short: (§1)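 A plate was accepted only when its control CV was below 25% and the cells had doubled at least once. Viability is defined from nuclear counts as treated wells divided by vehicle wells, with the median taken across plates. That median covers lung cancer cell lines grown in 1536-well plates, dosed by pinning at five √10-spaced library-drug concentrations, and counted in MetaXpress from 4× Hoechst images after 5 days.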

TPCA-1 = compound: C1=CC(=CC=C1C2=CC(=C(S2)NC(=O)N)C(=O)N)F [TPCA-1]
In short: as §1

Lestaurtinib = compound: C[C@]12O[C@H](C[C@]1(O)CO)n1c3ccccc3c3c4c(c5c6ccccc6n2c5c31)CNC4=O [Lestaurtinib]
In short: as §1

Cell Line | relative viability ([1]; 0.2 µM) | relative viability ([1]; 0.6325 µM) | relative viability ([1]; 2 µM) | relative viability ([1]; 6.325 µM) | relative viability ([1]; 20 µM) | relative viability (TPCA-1; 0.04 µM) | relative viability (TPCA-1; 0.1265 µM) | relative viability (TPCA-1; 0.4 µM) | relative viability (TPCA-1; 1.265 µM) | relative viability (TPCA-1; 4 µM) | relative viability (Lestaurtinib; 0.005 µM) | relative viability (Lestaurtinib; 0.01581 µM) | relative viability (Lestaurtinib; 0.05 µM) | relative viability (Lestaurtinib; 0.1581 µM) | relative viability (Lestaurtinib; 0.5 µM)
NCI-H441 | 1.14 | 1.24 | 1.14 | 0.867 | 0.995 | 1.22 | 0.816 | 0.882 | 0.704 | 0.425 | 1.02 | 1.05 | 0.611 | 0.61 | 0.438
NCI-H460 | 1.05 | 1.01 | 1.05 | 0.823 | 0.971 | 1.03 | 0.984 | 1.01 | 1.04 | 0.889 | 1.08 | 1.09 | 1.04 | 1.08 | 0.836
NCI-H520 | 1.04 | 1.13 | 1.12 | 0.969 | 0.886 | 1.16 | 0.835 | 0.941 | 1.1 | 0.371 | 1.13 | 1.07 | 0.789 | 0.524 | 0.292
NCI-H522 | 1.12 | 0.967 | 1.06 | 0.978 | 0.922 | 0.928 | 0.916 | 1.18 | 1.07 | 0.844 | 1.03 | 0.963 | 0.877 | 0.877 | 0.604
NCI-H596 | 1 | 0.994 | 1.11 | 0.85 | 0.964 | 1.09 | 0.978 | 1.05 | 1.17 | 0.842 | 1.02 | 0.889 | 0.872 | 1.06 | 1.02
NCI-H647 | 1.01 | 1.01 | 1.02 | 0.84 | 0.85 | 0.972 | 0.818 | 1.07 | 0.867 | 0.48 | 0.918 | 0.988 | 0.513 | 0.407 | 0.172
NCI-H650 | 0.973 | 0.885 | 0.956 | 0.984 | 0.906 | 1.03 | 0.823 | 0.946 | 0.488 | 0.557 | 0.953 | 1.03 | 0.844 | 0.46 | 0.403
NCI-H661 | 1.05 | 1.03 | 0.998 | 0.903 | 0.985 | 0.963 | 0.858 | 0.983 | 0.961 | 0.7 | 1.01 | 0.972 | 0.964 | 0.935 | 0.439
NCI-H727 | 1.09 | 0.887 | 1.02 | 0.709 | 0.954 | 0.939 | 0.86 | 0.961 | 0.78 | 0.734 | 1.07 | 1.21 | 1.03 | 0.787 | 0.476
NCI-H838 | 0.97 | 0.981 | 1.04 | 0.79 | 0.904 | 1.04 | 0.863 | 0.967 | 0.755 | 0.739 | 1 | 0.986 | 0.811 | 0.58 | 0.193
NCI-H1299 | 0.993 | 1.04 | 0.963 | 0.859 | 0.997 | 1.03 | 0.977 | 0.991 | 1.01 | 1.07 | 1.03 | 1.02 | 0.762 | 0.799 | 0.727
NCI-H1355 | 1 | 0.967 | 0.995 | 0.833 | 0.963 | 1.09 | 0.89 | 0.94 | 0.859 | 0.751 | 1.07 | 1.01 | 0.777 | 0.582 | 0.508
